# Measurements taken from PMC7162861, “Synthesis, cytotoxicity, pharmacokinetic profile, binding with DNA and BSA of new imidazo[1,2-a]pyrazine-benzo[d]imidazol-5-yl hybrids” (Scientific Reports, 2020).
# Experiments:
# EXVX = test: NCI cytotoxicity screen, Non-Small Cell Lung Cancer panel; format: cell-based; conditions: Homo sapiens; EXVX; single dose 10 µM; negative = lethal; read-out: Percent growth inhibition
# Experimental: (§1) Cytotoxicity was performed at National Cancer Institute (NCI), Bethesda, USA as per their protocols.
# A549/ATCC = test: as above; format: cell-based; conditions: Homo sapiens; A549/ATCC; single dose 10 µM; negative = lethal; read-out: Percent growth inhibition
# Experimental: as §1
# HOP-92 = test: as above; format: cell-based; conditions: Homo sapiens, single dose 10 µM, negative = lethal, read-out: Percent growth inhibition
# Experimental: as §1
# HOP-62 = test: as above; format: cell-based; conditions: Homo sapiens, single dose 10 µM, negative = lethal, read-out: Percent growth inhibition
# Experimental: as §1
# NCI-H460 = test: as above; format: cell-based; conditions: Homo sapiens, single dose 10 µM, negative = lethal, read-out: Percent growth inhibition
# Experimental: as §1
# SK-MEL-5 = test: NCI cytotoxicity screen, Melanoma panel; format: cell-based; conditions: Homo sapiens, single dose 10 µM, negative = lethal, read-out: Percent growth inhibition
# Experimental: as §1
# SK-MEL-28 = test: NCI cytotoxicity screen, Melanoma panel; format: cell-based; conditions: Homo sapiens, single dose 10 µM, negative = lethal, read-out: Percent growth inhibition
# Experimental: as §1
# SK-MEL-2 = test: NCI cytotoxicity screen, Melanoma panel; format: cell-based; conditions: Homo sapiens, single dose 10 µM, negative = lethal, read-out: Percent growth inhibition
# Experimental: as §1
# UACC-257 = test: NCI cytotoxicity screen, Melanoma panel; format: cell-based; conditions: Homo sapiens, single dose 10 µM, negative = lethal, read-out: Percent growth inhibition
# Experimental: as §1
# MDA-MB-435 = test: NCI cytotoxicity screen, Melanoma panel; format: cell-based; conditions: Homo sapiens, MDA-MB-435, read-out: Percent growth inhibition
# Experimental: as §1
# MALME-3M = test: NCI cytotoxicity screen, Melanoma panel; format: cell-based; conditions: Homo sapiens; MALME-3M; single dose 10 µM; negative = lethal; read-out: Percent growth inhibition
# Experimental: as §1
# NCI-H226 = test: NCI cytotoxicity screen, Non-Small Cell Lung Cancer panel; format: cell-based, human; conditions: Homo sapiens, single dose 10 µM, negative = lethal, read-out: Percent growth inhibition
# Experimental: as §1
# NCI-H23 = test: as above; format: cell-based, human; conditions: Homo sapiens, single dose 10 µM, negative = lethal, read-out: Percent growth inhibition
# Experimental: as §1
# NCI-H322M = test: as above; format: cell-based, human; conditions: Homo sapiens, single dose 10 µM, negative = lethal, read-out: Percent growth inhibition
# Experimental: as §1
# NCI-522 = test: as above; format: cell-based, human; conditions: Homo sapiens; NCI-522; single dose 10 µM; negative = lethal; read-out: Percent growth inhibition
# Experimental: as §1
# PC-3 = test: NCI cytotoxicity screen, Prostate Cancer panel; format: cell-based, human; conditions: Homo sapiens, single dose 10 µM, negative = lethal, read-out: Percent growth inhibition
# Experimental: as §1
# DU-145 = test: NCI cytotoxicity screen, Prostate Cancer panel; format: cell-based, human; conditions: Homo sapiens, single dose 10 µM, negative = lethal, read-out: Percent growth inhibition
# Experimental: as §1
# RXF 393 = test: NCI cytotoxicity screen, Renal Cancer panel; format: cell-based; conditions: Homo sapiens, single dose 10 µM, negative = lethal, read-out: Percent growth inhibition
# Experimental: as §1
# ACHN = test: NCI cytotoxicity screen, Renal Cancer panel; format: cell-based; conditions: Homo sapiens, single dose 10 µM, negative = lethal, read-out: Percent growth inhibition
# Experimental: as §1
# UO-31 = test: NCI cytotoxicity screen, Renal Cancer panel; format: cell-based; conditions: Homo sapiens, single dose 10 µM, negative = lethal, read-out: Percent growth inhibition
# Experimental: as §1
# A498 = test: NCI cytotoxicity screen, Renal Cancer panel; format: cell-based; conditions: Homo sapiens, single dose 10 µM, negative = lethal, read-out: Percent growth inhibition
# Experimental: as §1
# SN12C = test: NCI cytotoxicity screen, Renal Cancer panel; format: cell-based; conditions: Homo sapiens, single dose 10 µM, negative = lethal, read-out: Percent growth inhibition
# Experimental: as §1
# HT29 = test: NCI cytotoxicity screen, Colon Cancer panel; format: cell-based; conditions: Homo sapiens, HT-29; HT29; single dose 10 µM; negative = lethal; read-out: Percent growth inhibition
# Experimental: as §1
# HCT-116 = test: NCI cytotoxicity screen, Colon Cancer panel; format: cell-based; conditions: Homo sapiens, single dose 10 µM, negative = lethal, read-out: Percent growth inhibition
# Experimental: as §1
# HCT-15 = test: NCI cytotoxicity screen, Colon Cancer panel; format: cell-based; conditions: Homo sapiens, single dose 10 µM, negative = lethal, read-out: Percent growth inhibition
# Experimental: as §1
# COLO 205 = test: NCI cytotoxicity screen, Colon Cancer panel; format: cell-based; conditions: Homo sapiens, single dose 10 µM, negative = lethal, read-out: Percent growth inhibition
# Experimental: as §1
# [1] = Experimental log P, shake-flask method; format: physicochemical; conditions: n-octanol/phosphate buffer pH 7.4, read-out: Exp. Log P
# Experimental: Partition coefficients or experimental log P values of all synthesized compounds (9–23, 30 and 31) were calculated using the shake-flask method. Log P values were determined using n-octanol and phosphate buffer (pH = 7.4) at 10:1 ratio of volumes. Stock solutions (10^−3 M) of compounds were prepared in DMSO. Glass vials were used to make final solutions i.e. stock solution (250 µL) and phosphate buffer (125 µL). To record the absorbance, wavelength was selected based on λmax of the respective compound. Initial absorbance (Ai) for every compound was noted consuming the stock solution in the buffer phase. Now added n-octanol to every vial and shaken well using a mechanical shaker for 50 minutes. To get separation of both phases, glass vials were centrifuged for 35 min. at 2500 rpm. Then, the layer of octanol was separated from glass vial. The final absorbance (Af) of each compound was recorded by using the buffer layer. The values of P for compounds were determined by the following equation (Eq. 8):8 P=Ai−Af/Af×Vw/Vo
# SNB-19 = test: NCI cytotoxicity screen, CNS Cancer panel; format: cell-based; conditions: Homo sapiens; SNB-19; single dose 10 µM; negative = lethal; read-out: Percent growth inhibition
# Experimental: as §1
# U251 = test: NCI cytotoxicity screen, CNS Cancer panel; format: cell-based; conditions: Homo sapiens, U-251; U251; single dose 10 µM; negative = lethal; read-out: Percent growth inhibition
# Experimental: as §1
# SNB-75 = test: NCI cytotoxicity screen, CNS Cancer panel; format: cell-based; conditions: Homo sapiens, single dose 10 µM, negative = lethal, read-out: Percent growth inhibition
# Experimental: as §1
# SF-268 = test: NCI cytotoxicity screen, CNS Cancer panel; format: cell-based; conditions: Homo sapiens, single dose 10 µM, negative = lethal, read-out: Percent growth inhibition
# Experimental: as §1
# SF-295 = test: NCI cytotoxicity screen, CNS Cancer panel; format: cell-based; conditions: Homo sapiens, single dose 10 µM, negative = lethal, read-out: Percent growth inhibition
# Experimental: as §1
# SF-539 = test: NCI cytotoxicity screen, CNS Cancer panel; format: cell-based; conditions: Homo sapiens, single dose 10 µM, negative = lethal, read-out: Percent growth inhibition
# Experimental: as §1
# M14 = test: NCI cytotoxicity screen, Melanoma panel; format: cell-based, human; conditions: Homo sapiens, single dose 10 µM, negative = lethal, read-out: Percent growth inhibition
# Experimental: as §1
# LOX IMVI = test: NCI cytotoxicity screen, Melanoma panel; format: cell-based, human; conditions: Homo sapiens, single dose 10 µM, negative = lethal, read-out: Percent growth inhibition
# Experimental: as §1
# UACC-62 = test: NCI cytotoxicity screen, Melanoma panel; format: cell-based, human; conditions: Homo sapiens, single dose 10 µM, negative = lethal, read-out: Percent growth inhibition
# Experimental: as §1
# MOLT-4 = test: NCI cytotoxicity screen, Leukemia panel; format: cell-based; conditions: Homo sapiens, MOLT-4, MOLT-4; single dose 10 µM; negative = lethal; read-out: Percent growth inhibition
# Experimental: as §1
# K-562 = test: NCI cytotoxicity screen, Leukemia panel; format: cell-based; conditions: Homo sapiens, K562; K-562; single dose 10 µM; negative = lethal; read-out: Percent growth inhibition
# Experimental: as §1
# SR = test: NCI cytotoxicity screen, Leukemia panel; format: cell-based; conditions: Homo sapiens, single dose 10 µM, negative = lethal, read-out: Percent growth inhibition
# Experimental: as §1
# RPMI-8226 = test: NCI cytotoxicity screen, Leukemia panel; format: cell-based; conditions: Homo sapiens; RPMI-8226; single dose 10 µM; negative = lethal; read-out: Percent growth inhibition
# Experimental: as §1
# CCRF-CEM = test: NCI cytotoxicity screen, Leukemia panel; format: cell-based; conditions: Homo sapiens, single dose 10 µM, negative = lethal, read-out: Percent growth inhibition
# Experimental: as §1
# HL-60(TB) = test: NCI cytotoxicity screen, Leukemia panel; format: cell-based; conditions: Homo sapiens, HL-60, HL-60(TB); single dose 10 µM; negative = lethal; read-out: Percent growth inhibition
# Experimental: as §1
# OVCAR-3 = test: NCI cytotoxicity screen, Ovarian Cancer panel; format: cell-based, human; conditions: Homo sapiens; OVCAR-3; single dose 10 µM; negative = lethal; read-out: Percent growth inhibition
# Experimental: as §1
# CAKI-1 = test: NCI cytotoxicity screen, Renal Cancer panel; format: cell-based; conditions: Homo sapiens; CAKI-1; single dose 10 µM; negative = lethal; read-out: Percent growth inhibition
# Experimental: as §1
smiles,measurement,setting,value
"COc1ccc(-c2cn3ccnc3c(-c3ccc4c(c3)ncn4C3CCCCC3)n2)cc1 [Compound 10, 8-(1-cyclohexyl-1H-benzo[d]imidazol-5-yl)-6-(4-methoxyphenyl)imidazo[1,2-a]pyrazine]",inhibition at 10 µM,EXVX,7.85%
same,inhibition at 10 µM,A549/ATCC,7.33%
same,inhibition at 10 µM,HOP-92,17.4%
same,inhibition at 10 µM,HOP-62,3.33%
same,inhibition at 10 µM,NCI-H460,2.9%
same,inhibition at 10 µM,SK-MEL-5,5.95%
same,inhibition at 10 µM,SK-MEL-28,4.86%
same,inhibition at 10 µM,SK-MEL-2,9.88%
same,inhibition at 10 µM,UACC-257,< 1%
same,inhibition at 10 µM,MDA-MB-435,6.92%
same,inhibition at 10 µM,MALME-3M,< 1%
same,inhibition at 10 µM,NCI-H226,< 1%
same,inhibition at 10 µM,NCI-H23,< 1%
same,inhibition at 10 µM,NCI-H322M,< 1%
same,inhibition at 10 µM,NCI-522,18.5%
same,inhibition at 10 µM,PC-3,22.6%
same,inhibition at 10 µM,DU-145,< 1%
same,inhibition at 10 µM,RXF 393,< 1%
same,inhibition at 10 µM,ACHN,10.9%
same,inhibition at 10 µM,UO-31,33.5%
same,inhibition at 10 µM,A498,< 1%
same,inhibition at 10 µM,SN12C,< 1%
same,inhibition at 10 µM,HT29,< 1%
same,inhibition at 10 µM,HCT-116,18.6%
same,inhibition at 10 µM,HCT-15,11.9%
same,inhibition at 10 µM,COLO 205,< 1%
same,logP,[1],1.44
same,inhibition at 10 µM,SNB-19,4.26%
same,inhibition at 10 µM,U251,3.4%
same,inhibition at 10 µM,SNB-75,15.9%
same,inhibition at 10 µM,SF-268,3.96%
same,inhibition at 10 µM,SF-295,12.5%
same,inhibition at 10 µM,SF-539,9.71%
same,inhibition at 10 µM,M14,9.96%
same,inhibition at 10 µM,LOX IMVI,7.86%
same,inhibition at 10 µM,UACC-62,1.25%
same,inhibition at 10 µM,MOLT-4,34.2%
same,inhibition at 10 µM,K-562,29.2%
same,inhibition at 10 µM,SR,29.7%
same,inhibition at 10 µM,RPMI-8226,14.7%
same,inhibition at 10 µM,CCRF-CEM,1.19%
same,inhibition at 10 µM,HL-60(TB),23.3%
same,inhibition at 10 µM,OVCAR-3,< 1%
"Fc1ccc(-c2cn3ccnc3c(-c3ccc4c(c3)ncn4C3CCCCC3)n2)cc1 [Compound 13, 8-(1-cyclohexyl-1H-benzo[d]imidazol-5-yl)-6-(4-fluorophenyl)imidazo[1,2-a]pyrazine]",inhibition at 10 µM,EXVX,< 1%
same,inhibition at 10 µM,A549/ATCC,8.95%
same,inhibition at 10 µM,HOP-92,7.05%
same,inhibition at 10 µM,HOP-62,13.2%
same,inhibition at 10 µM,NCI-H460,< 1%
same,inhibition at 10 µM,SK-MEL-5,2.9%
same,inhibition at 10 µM,SK-MEL-28,< 1%
same,inhibition at 10 µM,SK-MEL-2,6.3%
same,inhibition at 10 µM,UACC-257,< 1%
same,inhibition at 10 µM,MDA-MB-435,< 1%
same,inhibition at 10 µM,MALME-3M,< 1%
same,inhibition at 10 µM,NCI-H226,7.09%
same,inhibition at 10 µM,NCI-H23,4.49%
same,inhibition at 10 µM,NCI-H322M,< 1%
same,inhibition at 10 µM,NCI-522,22.6%
same,inhibition at 10 µM,PC-3,10.2%
same,inhibition at 10 µM,DU-145,< 1%
same,inhibition at 10 µM,RXF 393,36%
same,inhibition at 10 µM,CAKI-1,< 1%
same,inhibition at 10 µM,ACHN,< 1%
same,inhibition at 10 µM,UO-31,22.8%
same,inhibition at 10 µM,SN12C,< 1%
same,inhibition at 10 µM,HT29,8.33%
same,inhibition at 10 µM,HCT-116,6.58%
same,inhibition at 10 µM,HCT-15,4.85%
same,inhibition at 10 µM,COLO 205,< 1%
same,logP,[1],1.26
same,inhibition at 10 µM,SNB-19,< 1%
same,inhibition at 10 µM,U251,3.57%
same,inhibition at 10 µM,SNB-75,< 1%
same,inhibition at 10 µM,SF-268,5.13%
same,inhibition at 10 µM,SF-295,< 1%
same,inhibition at 10 µM,SF-539,< 1%
same,inhibition at 10 µM,M14,0.73%
same,inhibition at 10 µM,LOX IMVI,0.76%
same,inhibition at 10 µM,UACC-62,2.44%
same,inhibition at 10 µM,MOLT-4,11.4%
same,inhibition at 10 µM,K-562,13.2%
same,inhibition at 10 µM,SR,20.8%
same,inhibition at 10 µM,RPMI-8226,6.16%
same,inhibition at 10 µM,CCRF-CEM,< 1%
same,inhibition at 10 µM,HL-60(TB),5.28%
same,inhibition at 10 µM,OVCAR-3,< 1%
